In US12168673B2 (Mitopower, Inc., priority 2022, dated 2024):

What was measured:
[1] = test system: primary human hepatocytes; assay: NAD+ in primary human hepatocytes at 250 μM (Example 10); format: cell-based; conditions: four hours of incubation
Experimental: (§1) Cryopreserved primary human hepatocytes, sourced from Lonza were cultured and were seeded into 6 well dishes with 0.5 million cells per well. […] The cells were later spun down and extracted. The supernatant was tested via LCMS/MS for NAD^+.

[2] = test system: HepG2 cells; assay: Cellular NAD+ levels in HepG2 cells, NAD cycling assay; format: cell-based
Experimental: HepG2 cells were seeded at densities of 1 million cells per well in a 6 well plate. The next day, cells were treated with test compounds for 4 hours and were harvested using the below protocol. Each well was washed once with 2 mL ice cold PBS which was removed and 400 μL 2M HClO4 (perchloric acid) was added to each well, which was scraped and the residue transferred to 1.5 mL tubes and spun down. 100 μL of the supernatant was transferred to a clean 1.5 mL vial and 150 μL KOH/MOPS 2M/0.6M (neutralization buffer) was added to each vial under vortex which was spun down. The pH was measured following the NAD cycling protocol.
NAD standards were prepared from 0 to 0.5 μM in water as per Table 7.
The cycling reaction was prepared as follows. 10 μl samples were added followed by water to bring the volume up to 25 μl. 25 μl of each standard was used in duplicates for the reaction. Then 50 μl of mix A (cycling mix) was added to the sample and standards. Mix A contained the following:
Reaction was initiated using 25 μL enzyme mix (15 U/ml of alcohol dehydrogenase+15 U/mL of malate dehydrogenase). The samples were incubated at 37° C. for 30 minutes in a water bath and the reaction terminated by heating in a water bath for 5 minutes at 80° C. Then 25 μl of the sample was used in the detection step. 100 μl mix B, which contains following components were added to the sample.
Reaction was initiated using a start reagent (prepared by mixing 10 μl of malate dehydrogenase and 10 μl of glutamate oxaloacetic transaminase in 1 ml of water. The reading were measured at 340 nm in a envision plate reader. The results are shown in FIGS. 4A-4D.

[3] = test system: primary human hepatocytes; assay: NAD+ in primary human hepatocytes (Example 12); format: cell-based; conditions: 10 μM, four hours of incubation
Experimental: as §1

[4] = Human hepatocyte clearance; format: in vitro ADME; conditions: human hepatocytes, 1 μM
Experimental: (§2) A hepatocyte vial was taken out from the liquid nitrogen tank and was thawed in a water bath maintained at 37° C. The thawed cell suspension was transferred into a torsion tube containing 50 mL of thawing media (Xenotech). The thawing media containing hepatocytes was centrifuged at 1000 rpm for 5 min, the supernatant was discarded and the pellet was resuspended in 2 ml of Xenotech OptiIncubate Media. The cells were counted by using a haemocytometer after mixing an aliquot of cell suspension with equal volume of trypan blue. The cell suspension was diluted to a working density of 2 million cells with DMEM media without FBS/incubation media.
(§3) The assay was performed in duplicates (n=2). 150 μL of 2 million cell working stock of hepatocyte cell suspension was added to a 24 well plate and incubated in a 37° C. incubator, with speed of 500 RPM for 10 min. 150 μL of 2 μM working stock of test compound was incubated separately. The reaction at 0, 15, 30, 60 and 90 min was stopped by precipitating 20 μL of incubation mixture with 200 μL of acetonitrile containing internal standard. […] The supernatant was separated and diluted 1:1 with water before injecting in LC-MS/MS analysis.

[5] = test system: human hepatocytes; assay: Human hepatocyte clearance; format: in vitro ADME
Experimental: as §2, §3

[6] = test system: human hepatocytes; assay: Human hepatocyte stability
Experimental: 10 mM stock solution of test compound was prepared in DMSO and diluted to a concentration of 1 mM with DMSO. Working concentration of 2 μM was prepared by further dilution with PBS. Preincubation mixture of 150 μL of hepatocyte cell suspension (1,000,000 cells/mL, INVITROGRO HT medium buffer), was added to vials for preincubation for 10 min @37° C.
150 μL of 2 μM working stock of the test compound was added to the cell suspension and incubated at @37 C at 500 rpm. The reaction was stopped at 0, 15, 30, 60 and 90 min by precipitating 50 μL of the incubation mixture with 150 μL of acetonitrile. Samples were vortexed for 5 min at 1200 rpm and centrifuged at 4000 rpm for 10 min. 150 μL of the supernatant was diluted with 150 μL of water and injected in MS system (SCIEX, API 4500 Q Trap) for analysis.

COC(=O)[C@@H](C)N[P@@](=O)(OC[C@H]1OC(OC(=O)c2cccnc2)[C@H](O)[C@@H]1O)Oc1ccccc1 (single isomer, unassigned) [Compound 104]
NAD+ level increase compared to untreated cells [1]: statistically significant NAD^+ level increases
NAD+ level increase at the lowest concentration ([2]; HepG2, 10 μM): statistically significant increase
NAD+ level increase compared to nicotinic acid ([2]; HepG2, all concentrations (10-250 μM)): statistically significant increase
NAD+ level increase compared to untreated cells [3]: statistically significant NAD^+ level increases
half-life at 1 μM ([4]; 0-90 min, read-out: T½): 48.1 min
hepatocyte CLint at 1 μM ([4]; read-out: Intrinsic Clearance (CL Int)): 14.4 µL/min/1e6 cells
Remarks (clearance class) [5]: medium clearance
clearance in human hepatocytes (in words) [6]: medium clearance
% Parent Remaining ([6]; 0 mins): 100%
% Parent Remaining ([6]; 15 mins): 78%
% Parent Remaining ([6]; 30 mins): 65%
% Parent Remaining ([6]; 60 mins): 45%
% Parent Remaining ([6]; 90 mins): 24%
